Active and inactive are the calls of the source. The calls are words filed in the database; no cut-off is given here.
Experiments:
[1] = Neurotoxicity in Kunming mouse assessed as swollen pyramidal cells in brain at 50 mg/kg, ip administered for 28 days by H and E staining based assay; format: toxicity, organism-based; conditions: in vivo, 672 h, time 28 day
Echinococcus granulosus [2] = assay: Parasiticidal activity against Echinococcus granulosus microcyst infected in kunming mouse assessed as reduction in cyst weight at 25 mg/kg, ip administered for 14 days relative to control; format: functional; set-up: scale not given: the % may be the effect or the level left; conditions: time 14 day
Echinococcus granulosus [3] = assay: Parasiticidal activity against Echinococcus granulosus protoscolices assessed as increase in death rate at 5 uM incubated for 4 days by darker staining-based light microscopy; format: functional, organism-based; conditions: time 4.0 day
Echinococcus granulosus [4] = assay: Parasiticidal activity against Echinococcus granulosus microcyst infected in kunming mouse assessed as mean cyst weight at 12.5 mg/kg, ip administered for 28 days; format: functional; conditions: time 28 day
Echinococcus granulosus [5] = assay: Induction of autophagy in Echinococcus granulosus protoscolices assessed as increase in Beclin1 expression level at 5 uM measured after 4 days by Western blot analysis; format: functional, organism-based; conditions: time 4.0 day
Echinococcus granulosus [6] = assay: Parasiticidal activity against Echinococcus granulosus microcyst infected in kunming mouse assessed as reduction in cyst weight at 50 mg/kg, ip administered for 28 days relative to control; format: functional; set-up: scale not given: the % may be the effect or the level left; conditions: time 28 day
[7] = AUC (0 to infinity) in Wistar rat at 5 mg/kg, iv by HPLC analysis; format: ADME, organism-based; set-up: dose 5 mg/kg, route iv; conditions: in vivo
[8] = Neurotoxicity in Kunming mouse assessed as effect on hippocampal arrangement at 50 mg/kg, ip administered for 28 days by TEM analysis; format: toxicity, organism-based; conditions: in vivo, 672 h, time 28 day
Echinococcus granulosus [9] = assay: Parasiticidal activity against Echinococcus granulosus protoscolices assessed as loss of hooks at 5 uM incubated for 4 days by scanning electron microscopy; format: functional, organism-based; conditions: time 4.0 day
Echinococcus granulosus [10] = assay: Parasiticidal activity against Echinococcus granulosus protoscolices assessed as appearance of whole body vacuolation at 5 uM incubated for 4 days by H and E based staining assay; format: functional, organism-based; conditions: time 4.0 day
Echinococcus granulosus [11] = assay: Induction of autophagy in Echinococcus granulosus protoscolices assessed as increase in ATG5 expression level at 5 uM measured after 4 days by Western blot analysis; format: functional, organism-based; conditions: time 4.0 day
Echinococcus granulosus [12] = assay: Potency index, ratio of Albendazole LC50 to test compound LC50 for Parasiticidal activity against Echinococcus granulosus protoscolices; format: functional
Echinococcus granulosus [13] = assay: Parasiticidal activity against Echinococcus granulosus microcyst infected in kunming mouse assessed as mean cyst weight at 12.5 mg/kg, ip administered for 14 days; format: functional; conditions: time 14 day
Echinococcus granulosus [14] = assay: Parasiticidal activity against Echinococcus granulosus protoscolices assessed as appearance of disintegrated marginal structure at 5 uM incubated for 4 days by H and E staining based assay; format: functional, organism-based; conditions: time 4.0 day
[15] = Neurotoxicity in Kunming mouse assessed as nuclei damage at 50 mg/kg, ip administered for 28 days by TEM analysis; format: toxicity, organism-based; conditions: in vivo, 672 h, time 28 day
Echinococcus granulosus [16] = assay: Parasiticidal activity against Echinococcus granulosus microcyst infected in kunming mouse assessed as reduction in cyst weight at 50 mg/kg, ip administered for 14 days relative to control; format: functional; set-up: scale not given: the % may be the effect or the level left; conditions: time 14 day
Echinococcus granulosus [17] = assay: Parasiticidal activity against Echinococcus granulosus protoscolices […] by eosin exclusion test; format: functional; conditions: 1152 h, time 48 day
[18] = Neurotoxicity in Kunming mouse assessed as effect on hippocampal structure at 50 mg/kg, ip administered for 28 days by TEM analysis; format: toxicity, organism-based; conditions: in vivo, 672 h, time 28 day
Echinococcus granulosus [19] = assay: Parasiticidal activity against intraperitoneal cystic Echinococcus granulosus infected in Kunming mouse assessed as appearance of vacuole-like structure at 50 mg/kg, ip administered for 28 days by TEM analysis; format: functional, organism-based; conditions: time 28.0 day
Echinococcus granulosus [20] = assay: Parasiticidal activity against Echinococcus granulosus protoscolices assessed as lethal effect incubated for 4 days by eosin exclusion test; format: functional, organism-based; conditions: dose 0.5-5 µM, time 4.0 day
Echinococcus granulosus [21] = assay: Parasiticidal activity against Echinococcus granulosus microcyst infected in kunming mouse assessed as mean cyst weight at 50 mg/kg, ip administered for 28 days; format: functional; conditions: time 28 day
[22] = Neurotoxicity in Kunming mouse assessed as deformed pyramidal cells in brain at 50 mg/kg, ip administered for 28 days by H and E staining based assay; format: toxicity, organism-based; conditions: in vivo, 672 h, time 28 day
Echinococcus granulosus [23] = assay: Parasiticidal activity against Echinococcus granulosus protoscolices assessed as degeneration of outer skin at 5 uM incubated for 4 days by scanning electron microscopy; format: functional, organism-based; conditions: time 4.0 day
Echinococcus granulosus [24] = assay: Parasiticidal activity against Echinococcus granulosus protoscolices assessed as loss of suckers at 5 uM incubated for 4 days by scanning electron microscopy; format: functional; conditions: time 4 day
Echinococcus granulosus [25] = assay: Parasiticidal activity against Echinococcus granulosus protoscolices assessed as death rate at 5 uM incubated for 4 days by eosin exclusion test; format: functional; conditions: time 4 day
Echinococcus granulosus [26] = assay: Parasiticidal activity against Echinococcus granulosus microcyst infected in kunming mouse assessed as reduction in cyst weight at 12.5 mg/kg, ip administered for 28 days relative to control; format: functional; set-up: scale not given: the % may be the effect or the level left; conditions: time 28 day
Echinococcus granulosus [27] = assay: Parasiticidal activity against Echinococcus granulosus protoscolices assessed as death rate at 0.5 uM incubated for 4 days by eosin exclusion test; format: functional; conditions: time 4 day
Echinococcus granulosus [28] = assay: Parasiticidal activity against Echinococcus granulosus microcyst infected in kunming mouse assessed as reduction in cyst weight at 12.5 mg/kg, ip administered for 14 days relative to control; format: functional; set-up: scale not given: the % may be the effect or the level left; conditions: time 14 day
[29] = Half life in Wistar rat at 5 mg/kg, iv by HPLC analysis; format: ADME, organism-based; conditions: in vivo
Echinococcus granulosus [30] = assay: Parasiticidal activity against Echinococcus granulosus assessed as collapse of germinal layers at 100 uM incubated for 4 days by scanning electron microscopy; format: functional, organism-based; conditions: time 4.0 day
[31] = Oral bioavailability in Wistar rat at 50 mg/kg, […] by HPLC analysis; format: ADME, organism-based; conditions: in vivo
Echinococcus granulosus [32] = assay: Parasiticidal activity against Echinococcus granulosus microcyst infected in kunming mouse assessed as mean cyst weight at 25 mg/kg, ip administered for 28 days; format: functional; conditions: time 28 day
Echinococcus granulosus [33] = assay: Parasiticidal activity against Echinococcus granulosus protoscolices assessed as change in ultrastructure at 5 uM incubated for 4 days by scanning electron microscopy; format: functional, organism-based; conditions: time 4.0 day
[34] = Cmax in Wistar rat at 5 mg/kg, iv by HPLC analysis; format: ADME, organism-based; set-up: dose 5 mg/kg, route iv; conditions: in vivo
[35] = Half life in Wistar rat at 50 mg/kg, ip by HPLC analysis; format: ADME, organism-based; conditions: in vivo
Echinococcus granulosus [36] = assay: Parasiticidal activity against intraperitoneal cystic Echinococcus granulosus infected in Kunming mouse assessed as disappearance of nucleolus at 50 mg/kg, ip administered for 28 days by TEM analysis; format: functional, organism-based; conditions: time 28.0 day
Echinococcus granulosus [37] = assay: Parasiticidal activity against Echinococcus granulosus microcyst infected in kunming mouse assessed as reduction in cyst weight at 25 mg/kg, ip administered for 28 days relative to control; format: functional; set-up: scale not given: the % may be the effect or the level left; conditions: time 28 day
Echinococcus granulosus [38] = assay: Parasiticidal activity against Echinococcus granulosus protoscolices assessed as appearance of dissolved and disappeared matrix at 5 uM incubated for 4 days by H and E staining based assay; format: functional, organism-based; conditions: time 4.0 day
Echinococcus granulosus [39] = assay: Parasiticidal activity against Echinococcus granulosus cyst assessed as seperation from cuticle at 100 uM incubated for 4 days by scanning electron microscopy; format: functional, organism-based; conditions: time 4.0 day
[40] = Neurotoxicity in Kunming mouse assessed as loosely arranged pyramidal cells in brain at 50 mg/kg, ip administered for 28 days by H and E staining based assay; format: toxicity, organism-based; conditions: in vivo, 672 h, time 28 day
Echinococcus granulosus [41] = assay: Parasiticidal activity against Echinococcus granulosus protoscolices assessed as lethal effect at 0.5 to 5 uM by eosin exclusion test; format: functional, organism-based; conditions: dose 0.5-5 µM, TDE = time-dependent effect
Echinococcus granulosus [42] = assay: Parasiticidal activity against intraperitoneal cystic Echinococcus granulosus infected in Kunming mouse assessed as cell structure destruction at 50 mg/kg, ip administered for 28 days by TEM analysis; format: functional, organism-based; conditions: time 28.0 day
[43] = Neurotoxicity in Kunming mouse assessed as organelles damage at 50 mg/kg, ip administered for 28 days by TEM analysis; format: toxicity, organism-based; conditions: in vivo, 672 h, time 28 day
Echinococcus granulosus [44] = assay: Parasiticidal activity against Echinococcus granulosus microcyst infected in kunming mouse assessed as mean cyst weight at 50 mg/kg, ip administered for 14 days; format: functional; conditions: time 14 day
Echinococcus granulosus [45] = assay: Induction of autophagy in Echinococcus granulosus protoscolices assessed as decrease in p62 expression level at 5 uM measured after 4 days by Western blot analysis; format: functional, organism-based; conditions: time 4.0 day
[46] = Neurotoxicity in Kunming mouse assessed as effect on heterochromatin at 50 mg/kg, ip administered for 28 days by TEM analysis; format: toxicity, organism-based; conditions: in vivo, 672 h, time 28 day
Echinococcus granulosus [47] = assay: Parasiticidal activity against Echinococcus granulosus cyst assessed as formation of dense aggregates at 100 uM incubated for 4 days by scanning electron microscopy; format: functional, organism-based; conditions: time 4.0 day
Echinococcus granulosus [48] = assay: Parasiticidal activity against Echinococcus granulosus microcyst infected in kunming mouse assessed as mean cyst weight at 25 mg/kg, ip administered for 14 days; format: functional; conditions: time 14 day

For `COc1ccc(-c2nc(NC(=O)c3ccc(CN4CCC(O)CC4)cc3)cc3c2[nH]c2ccccc23)cc1`, the Activity [1] was “Non-Toxic”, the Activity (Echinococcus granulosus [2]) was 64.79% and the Activity (Echinococcus granulosus [3]) was “Active”. For the same molecule, the Activity (Echinococcus granulosus [4]) was 17.8 mg, the Activity (Echinococcus granulosus [5]) was “Active” and the Activity (Echinococcus granulosus [6]) was 76.87%. For the same molecule, the AUC(0-inf) [7] was 3 µg·h/mL, the Activity [8] was “Non-Toxic” and the Activity (Echinococcus granulosus [9]) was “Active”. The Activity (Echinococcus granulosus [10]) was “Active”, the Activity (Echinococcus granulosus [11]) was “Active” and the RatioLC50 (Echinococcus granulosus [12]) was 95. For the same molecule, the Activity (Echinococcus granulosus [13]) was 20.9 mg, the Activity (Echinococcus granulosus [14]) was “Active” and the Activity [15] was “Non-Toxic”. For the same molecule, the Activity (Echinococcus granulosus [16]) was 73.35%, the LC50 (Echinococcus granulosus [17]) was 1.61 µM and the Activity [18] was “Non-Toxic”. For the same molecule, the Activity (Echinococcus granulosus [19]) was “Active”, the Activity (Echinococcus granulosus [20]) was “Dose-Dependent Effect” and the Activity (Echinococcus granulosus [21]) was 12.6 mg. For the same molecule, the Activity [22] was “Non-Toxic”, the Activity (Echinococcus granulosus [23]) was “Active” and the Activity (Echinococcus granulosus [24]) was 67.5%. For the same molecule, the Activity (Echinococcus granulosus [25]) was >90%, the Activity (Echinococcus granulosus [26]) was 51.12% and the Activity (Echinococcus granulosus [27]) was >50%. For the same molecule, the Activity (Echinococcus granulosus [28]) was 59.41%, the half-life [29] was 3.11 h and the Activity (Echinococcus granulosus [30]) was “Active”. For the same molecule, the bioavailability [31] was 42.4%, the Activity (Echinococcus granulosus [32]) was 15.2 mg and the Activity (Echinococcus granulosus [33]) was “Active”. The Cmax [34] was 3.04 µg/mL, the half-life [35] was 9.08 h and the Activity (Echinococcus granulosus [36]) was “Active”. For the same molecule, the Activity (Echinococcus granulosus [37]) was 72.05%, the Activity (Echinococcus granulosus [38]) was “Active” and the Activity (Echinococcus granulosus [39]) was “Active”. The Activity [40] was “Non-Toxic”, the Activity (Echinococcus granulosus [41]) was “Tde” and the Activity (Echinococcus granulosus [42]) was “Active”. For the same molecule, the Activity [43] was “Non-Toxic”, the Activity (Echinococcus granulosus [44]) was 13.7 mg and the Activity (Echinococcus granulosus [45]) was “Active”. The Activity [46] was “Non-Toxic”, the Activity (Echinococcus granulosus [47]) was “Active” and the Activity (Echinococcus granulosus [48]) was 18.1 mg.

— ChEMBL document CHEMBL5344429, “1,3-Substituted β-Carboline Derivatives as Potent Chemotherapy for the Treatment of Cystic Echinococcosis” (J Med Chem, 2023)
